Key:
Format in all cases: physicochemical
[1] = Solubility in water and aqueous buffers; conditions: in water and aqueous buffers at various pH values
[2] = Chemical stability under acid and alkaline conditions
[3] = In vitro dissolution from a tablet preparation (USP XXIII Paddle Method); conditions: drospirenone in micronized form; rapid dissolution defined as at least 70% over about 30 minutes from a 3 mg tablet in 900 ml of water at 37°C, 50 rpm

solubility [1]: sparingly soluble
stability under acid conditions ([2]; acid conditions): rearranged to an inactive isomer
stability under alkaline conditions ([2]; alkaline conditions): hydrolysed
dissolution of the active compound from the composition in vitro [3]: rapid dissolution
Compound: C[C@]12CCC(=O)C=C1[C@@H]1C[C@@H]1[C@H]1[C@@H]3[C@@H]4C[C@@H]4[C@@]4(CCC(=O)O4)[C@@]3(C)CC[C@@H]12 [drospirenone, 6β,7β;15β;16β-dimethylene-3-oxo-17α-preg-4-ene-21,17-carbolactone]

— patent EP1611892A2, “Pharmaceutical compositions comprising drospirenone” (Schering Aktiengesellschaft, priority 2000, dated 2001)
